Experiments:
[1] = system: healthy-1 or PD-2 fibroblasts; assay: Mitochondrial morphology and membrane potential, TMRM staining; type: cell-based, human; settings: 10 μM for 30 hrs
Description: (§1) FIG. 8. Related to FIG. 2-4. Miro1 Reducer in Human Cell and Fly Models. (A) Fibroblasts from Healthy-1 and PD-2 were treated, lysed, and blotted as indicated. Band intensities are normalized to those of GAPDH from the same blots and compared to “Healthy-1, no treatment”. n=4 independent experiments. (B) Fibroblasts from PD-2 were treated and immunostained as indicated. The intensity was quantified for each cell across 264-320 cells from 3 independent experiments, compared to “no treatment”. (C) Fibroblasts were treated, immunoprecipitated (IPed) with anti-Miro1, and blotted as indicated. Similar results were observed twice. (D) Similar as in (C), fibroblasts were treated as indicated, and IPed with anti-Miro1. The GTPase activity of the IPed Miro1 protein was measured as described in Method. […] The MitoSox intensity was quantified for each cell across 106-161 cells from 3 coverslips. […] The TMRM intensity was measured for each cell across 48-60 cells from 3 independent experiments, and expressed as a fraction of the mean of “Healthy-1, no treatment”. […] The movement (the intensity of non-yellow) was quantified for each cell as described in (Tsai et al., 2014) across 22-31 cells from 3 transfections. […] (1) Left: The percentage of TH-positive iPSC-derived neurons out of total cells (Dapi-positive) is calculated after immunocytochemistry under 20× as described in FIG. 3. […]

DMiro = target: T1, DMiro (Drosophila melanogaster, UniProt Q8IMX7); assay: DMiro level in PD flies fed compound, Western blot; type: in vivo, fly; settings: 2.5 μM, mutant LRRK2, PINK1 and SNCA flies
T1 construct: PD flies were fed with 2.5 μM Miro1 Reducer for the indicated time periods and lysed for blotting DMiro; from tissue; host or cells: whole flies (mutant LRRK2, PINK1 null) or heads (mutant SNCA flies)
T1 sequence (Q8IMX7 1-652): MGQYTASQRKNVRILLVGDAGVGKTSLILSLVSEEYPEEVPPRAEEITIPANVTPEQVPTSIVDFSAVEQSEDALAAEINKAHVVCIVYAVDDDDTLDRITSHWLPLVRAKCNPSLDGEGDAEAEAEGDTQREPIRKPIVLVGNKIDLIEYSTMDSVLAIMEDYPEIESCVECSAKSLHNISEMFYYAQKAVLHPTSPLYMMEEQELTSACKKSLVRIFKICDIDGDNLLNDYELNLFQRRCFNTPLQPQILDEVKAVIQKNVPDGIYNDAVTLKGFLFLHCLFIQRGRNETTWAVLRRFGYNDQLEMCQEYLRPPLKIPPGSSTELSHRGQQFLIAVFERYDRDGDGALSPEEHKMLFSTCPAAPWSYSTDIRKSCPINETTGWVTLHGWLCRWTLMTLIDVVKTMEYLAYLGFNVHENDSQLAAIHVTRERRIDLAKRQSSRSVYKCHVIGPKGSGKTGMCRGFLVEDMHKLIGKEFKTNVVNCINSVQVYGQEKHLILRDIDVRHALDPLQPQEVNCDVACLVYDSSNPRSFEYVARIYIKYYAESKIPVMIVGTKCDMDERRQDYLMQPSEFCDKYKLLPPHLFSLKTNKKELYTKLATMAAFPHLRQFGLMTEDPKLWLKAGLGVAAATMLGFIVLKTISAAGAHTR
Description: as §1

## O=C(Nc1ccc(Nc2cc(-n3ccnc3)ncn2)cc1)Nc1cccc(F)c1 [Miro1 Reducer]
[1]
  general mitochondrial morphology and ΔΨm (TMRM): did not affect
DMiro
  DMiro band intensity in PD flies: trend of DMiro reduction

Source: US12544375B2, “Small molecule therapeutic for parkinson's disease paired with a biomarker of therapeutic activity” (The Board of Trustees of the Leland Stanford Junior …, priority 2019, dated 2026)
